# Measurements as given in PMC4770093, “The role of kinetic context in apparent biased agonism at GPCRs” (Nature Communications, 2016).
# “And” between values parts separate entries of the source, which are not always exact repeats. Identical values can stand only once.
# Key:
# D2LR [1] = target: T1, D2LR (Homo sapiens, UniProt P14416); experiment: Gαi1 G protein activation (BRET); format: cell-based; set-up: expressed in transfected cells; details: 5 minute timepoint
# D2LR [2] = target: T1, D2LR; experiment: Quantification of biased agonism between pathways (operational model, LogBias); format: cell-based; set-up: expressed in transfected cells; details: 5 minute timepoint; dopamine as reference agonist
# From the text: where Top and Bottom represent the maximal and minimal asymptote of the dose–response curve, [A] is the molar concentration of agonist and EC50 is the molar concentration of agonist required to give a response half way between bottom and top. Dose–response data were fitted to the following form of the operational model of agonism[12] to allow the quantification of biased agonism
# where Em is the maximal possible response of the system, Basal is the basal level of response, KA represents the equilibrium dissociation constant of the agonist (A) and τ is an index of the signalling efficacy of the agonist that is defined as RT/KE, where RT is the total number of receptors and KE is the coupling efficiency of each agonist-occupied receptor, and n is the slope of the transducer function that links occupancy to response. The analysis assumes that the transduction machinery used for a given cellular pathway are the same for all agonists, such that the Em and transducer slope (n) are shared between agonists. Data for all compounds for each pathway were fit globally, to determine values of KA and τ. Biased agonism was quantified as previously described. […] The relative bias can then be calculated for each agonist at the two different signalling pathways by subtracting the Δlog(τ/KA) of one pathway from the other to give a ΔΔlog(τ/KA) value, which is a measure of bias. […] All affinity (pKi or pKA), potency (pEC50) and transduction ratio (log(τ/KA)) parameters were estimated as logarithms. When fold changes in bias are described, this was calculated by converting values of ΔΔlog(τ/KA) to the corresponding antilog value. […] Thus, as the application of t-tests and analyses of variance assume Gaussian distribution, estimating the parameters as logarithms allows valid statistical comparison. All results are expressed as the mean±s.e.m. As such, we performed a Brown–Forsythe test (Graphpad prism 6) to assure ourselves of equal variance when such parameters are compared.
# D2LR [3] = target: T1, D2LR; experiment: Inhibition of forskolin-induced cAMP production (BRET CAMYEL biosensor); details: for EC50: pEC50 cAMP; for Emax: relative to the maximal response of ropinirole; for Inhibition of cAMP production measured using a CAMYEL BRET biosensor, Net BRET: single experiments n = 1, 2, 3
# D2LR [4] = target: T1, D2LR; experiment: [3H]spiperone kinetic (dissociation, association, competition association) binding; set-up: expressed in transfected cells; details: [3H]spiperone tracer
# Protocol: (§1) The cells were harvested in PBS containing 2 mM EDTA and centrifuged at 300 g for 3 min. The resulting pellet was resuspended in ice-cold assay buffer (20 mM HEPES, 100 mM NaCl, 6 mM MgCl2, 1 mM EGTA and 1 mM EDTA pH 7.4) and the centrifugation step was repeated. The intact cell pellet was then resuspended in assay buffer and homogenized using a Polytron homogenizer. After centrifugation (1,000 g, 10 min), the pellet was discarded and the supernatant was recentrifuged at 30,000 g for 1 h at 4 °C using a Sorvall Evolution RC ultracentrifuge (Thermo Scientific). The resulting pellet was resuspended in assay buffer and stored in 250 μl aliquots at −80 °C. Membrane protein concentration was determined using the method of Bradford.
# (§2) All radioligand binding experiments were conducted at 37 °C in a 1-ml reaction volume in assay buffer (20 mM HEPES, 100 mM NaCl, 6 mM MgCl2, 1 mM EGTA and 1 mM EDTA pH 7.4) containing 100 μM GppNHp and 0.1% ascorbic acid. In all cases, nonspecific binding was determined in the presence of 10 μM haloperidol. […] Filter-bound radioactivity was measured by scintillation spectrometry after the addition of 3.5 ml of Ultima Gold (PerkinElmer) using a Tri-Carb 2900TR liquid scintillation counter (PerkinElmer).
# The kinetic parameters of unlabelled agonists were determined using the equations described by Motulsky and Mahan[31]. […]
# D2LR [5] = target: T1, D2LR; experiment: xCELLigence cellular impedance (CI) assay; format: cell-based; set-up: expressed in transfected cells; details: for Emax: relative to the maximal response of ropinirole
# Protocol: Changes in CI on ligand stimulation were measured using the xCELLigence system (Roche Applied Science). The baseline cell index of each well of a 96-well E-plate was measured in the presence of growth medium before cell seeding. Cells were seeded at a density of 20,000 cells per well and grown for 16–20 h followed by 4 h serum starvation. Cells were treated with the ligands and the cell index values were obtained immediately after ligand stimulation every 15 s for a total time of 90 min. The retrieved cell index values were then normalized by dividing the cell index at the time of ligand addition followed by subtraction of the vehicle control at each time point.
# D2LR [6] = target: T1, D2LR; experiment: biochemical
# Protocol: as §1, §2
# where Y denotes the percentage-specific binding, Top and Bottom denote the maximal and minimal asymptotes, respectively, IC50 denotes the X-value when the response is midway between Bottom and Top, and nH denotes the Hill slope factor. IC50 values obtained from the inhibition curves were converted to Ki values using the Cheng and Prusoff equation[61].
# [7] = 5 minute timepoint, Flp-In-CHO-D2LR
# [8] = 5 minute timepoint, dopamine as reference agonist
# T1 sequence (P14416 whole entry): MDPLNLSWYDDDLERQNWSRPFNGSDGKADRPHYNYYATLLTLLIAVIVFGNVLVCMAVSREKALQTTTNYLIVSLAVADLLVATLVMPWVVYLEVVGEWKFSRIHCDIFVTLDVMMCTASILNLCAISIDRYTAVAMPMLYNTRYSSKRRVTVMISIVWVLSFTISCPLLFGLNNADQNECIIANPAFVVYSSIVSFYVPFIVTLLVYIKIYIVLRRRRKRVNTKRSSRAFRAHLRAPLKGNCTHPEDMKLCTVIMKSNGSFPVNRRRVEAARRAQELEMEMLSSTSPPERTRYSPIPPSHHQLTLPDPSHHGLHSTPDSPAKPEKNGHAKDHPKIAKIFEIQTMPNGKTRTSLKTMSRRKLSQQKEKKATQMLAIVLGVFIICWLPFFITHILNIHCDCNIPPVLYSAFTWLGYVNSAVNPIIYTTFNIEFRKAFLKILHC
structure (smiles),measurement,setting,value
"O=c1[nH]c2cccc(N3CCN(Cc4cccc(-c5ccccc5)c4)CC3)c2o1 [Bifeprunox, bifeprunox]",Log(τ/KA) Gαi1 activation,D2LR [1]; Flp-In-CHO-D2LR,8.60 ± 0.11
same,ΔLog(τ/KA) Gαi1 activation,D2LR [1]; dopamine as reference agonist,1.43 ± 0.14
same,LogBias CI – pERK1/2,D2LR [2],0.99 ± 0.14
same,LogBias Gαi1 – CI,D2LR [2],1.68 ± 0.16
same,LogBias Gαi1 – GαoB,D2LR [2],1.17 ± 0.19
same,LogBias Gαi1 – cAMP,D2LR [2],1.61 ± 0.16
same,LogBias Gαi1 – pERK1/2,D2LR [2],2.67 ± 0.18
same,LogBias GαoB – CI,D2LR [2],0.51 ± 0.15
same,LogBias GαoB – cAMP,D2LR [2],0.43 ± 0.14
same,LogBias GαoB – pERK1/2,D2LR [2],1.50 ± 0.17
same,LogBias cAMP – CI,D2LR [2],0.08 ± 0.11
same,LogBias cAMP – pERK1/2,D2LR [2],1.06 ± 0.13
same,LogBias β-arr2 – CI,D2LR [2],-0.33 ± 0.22
same,LogBias β-arr2 – Gαi1,D2LR [2],-2.01 ± 0.25
same,LogBias β-arr2 – GαoB,D2LR [2],-0.84 ± 0.24
same,LogBias β-arr2 – cAMP,D2LR [2],-0.41 ± 0.22
same,LogBias β-arr2 – pERK1/2,D2LR [2],0.66 ± 0.24
same,Log(τ/KA) cAMP,D2LR [3]; [7],7.88 ± 0.05
same,ΔLog(τ/KA) cAMP,D2LR [3]; [8],-0.18 ± 0.07
same,EC50,D2LR [3]; 2 min,25.1 nM
same,EC50,D2LR [3]; 5 min,12.3 nM
same,EC50,D2LR [3]; 10 min,7.41 nM
same,EC50,D2LR [3]; 15 min,5.37 nM
same,EC50,D2LR [3]; 30 min,2.4 nM
same,EC50,D2LR [3]; 45 min,2.75 nM
same,EC50,D2LR [3]; 60 min,3.09 nM
same,EC50,D2LR [3]; 75 min,1.58 nM
same,EC50,D2LR [3]; 90 min,2.04 nM
same,Emax,"D2LR [3]; read-out: Emax cAMP, 2 min",89 ± 2%
same,Emax,"D2LR [3]; read-out: Emax cAMP, 5 min",92 ± 2%
same,Emax,"D2LR [3]; read-out: Emax cAMP, 10 min",91 ± 2%
same,Emax,"D2LR [3]; read-out: Emax cAMP, 15 min",89 ± 2.4%
same,Emax,"D2LR [3]; read-out: Emax cAMP, 30 min",89 ± 1.7%
same,Emax,"D2LR [3]; read-out: Emax cAMP, 45 min",88 ± 2%
same,Emax,"D2LR [3]; read-out: Emax cAMP, 60 min",81 ± 2%
same,Emax,"D2LR [3]; read-out: Emax cAMP, 75 min",90 ± 2.5%
same,Emax,"D2LR [3]; read-out: Emax cAMP, 90 min",88 ± 2.5%
same,"Inhibition of cAMP production measured using a CAMYEL BRET biosensor, Net BRET",D2LR [3]; time 2.21667 mins,0.08914 and 0.1211 and 0.09318
same,"Inhibition of cAMP production measured using a CAMYEL BRET biosensor, Net BRET",D2LR [3]; time 2.58333 mins,0.103 and 0.1317 and 0.09421
same,"Inhibition of cAMP production measured using a CAMYEL BRET biosensor, Net BRET",D2LR [3]; time 2.95 mins,0.1113 and 0.1351 and 0.0964
same,"Inhibition of cAMP production measured using a CAMYEL BRET biosensor, Net BRET",D2LR [3]; time 3.31667 mins,0.1109 and 0.1416 and 0.1166
same,"Inhibition of cAMP production measured using a CAMYEL BRET biosensor, Net BRET",D2LR [3]; time 3.68333 mins,0.1141 and 0.143 and 0.1124
same,"Inhibition of cAMP production measured using a CAMYEL BRET biosensor, Net BRET",D2LR [3]; time 4.05 mins,0.1231 and 0.1563 and 0.1162
same,"Inhibition of cAMP production measured using a CAMYEL BRET biosensor, Net BRET",D2LR [3]; time 4.41667 mins,0.1255 and 0.1611 and 0.116
same,"Inhibition of cAMP production measured using a CAMYEL BRET biosensor, Net BRET",D2LR [3]; time 4.78333 mins,0.1306 and 0.1617 and 0.1229
same,"Inhibition of cAMP production measured using a CAMYEL BRET biosensor, Net BRET",D2LR [3]; time 5.15 mins,0.1492 and 0.1604 and 0.1179
same,"Inhibition of cAMP production measured using a CAMYEL BRET biosensor, Net BRET",D2LR [3]; time 5.51667 mins,0.135 and 0.1611 and 0.1193
same,"Inhibition of cAMP production measured using a CAMYEL BRET biosensor, Net BRET",D2LR [3]; time 5.88333 mins,0.1401 and 0.1595 and 0.123
same,"Inhibition of cAMP production measured using a CAMYEL BRET biosensor, Net BRET",D2LR [3]; time 6.25 mins,0.1298 and 0.1539 and 0.1222
same,"Inhibition of cAMP production measured using a CAMYEL BRET biosensor, Net BRET",D2LR [3]; time 6.61667 mins,0.1365 and 0.1594 and 0.1215
same,"Inhibition of cAMP production measured using a CAMYEL BRET biosensor, Net BRET",D2LR [3]; time 6.98333 mins,0.1365 and 0.1586 and 0.1225
same,"Inhibition of cAMP production measured using a CAMYEL BRET biosensor, Net BRET",D2LR [3]; time 7.35 mins,0.1382 and 0.1575 and 0.1195
same,"Inhibition of cAMP production measured using a CAMYEL BRET biosensor, Net BRET",D2LR [3]; time 7.71667 mins,0.1358 and 0.1585 and 0.1189
same,"Inhibition of cAMP production measured using a CAMYEL BRET biosensor, Net BRET",D2LR [3]; time 8.08333 mins,0.1415 and 0.1636 and 0.1191
same,"Inhibition of cAMP production measured using a CAMYEL BRET biosensor, Net BRET",D2LR [3]; time 8.45 mins,0.1387 and 0.16 and 0.1143
same,"Inhibition of cAMP production measured using a CAMYEL BRET biosensor, Net BRET",D2LR [3]; time 8.81667 mins,0.1483 and 0.1622 and 0.1213
same,"Inhibition of cAMP production measured using a CAMYEL BRET biosensor, Net BRET",D2LR [3]; time 9.18333 mins,0.1415 and 0.1645 and 0.1136
same,"Inhibition of cAMP production measured using a CAMYEL BRET biosensor, Net BRET",D2LR [3]; time 9.55 mins,0.1361 and 0.1571 and 0.122
same,"Inhibition of cAMP production measured using a CAMYEL BRET biosensor, Net BRET",D2LR [3]; time 9.91667 mins,0.1368 and 0.1537 and 0.1212
same,"Inhibition of cAMP production measured using a CAMYEL BRET biosensor, Net BRET",D2LR [3]; time 10.2833 mins,0.1433 and 0.1558 and 0.1185
same,"Inhibition of cAMP production measured using a CAMYEL BRET biosensor, Net BRET",D2LR [3]; time 10.65 mins,0.1418 and 0.1582 and 0.1222
same,"Inhibition of cAMP production measured using a CAMYEL BRET biosensor, Net BRET",D2LR [3]; time 11.0167 mins,0.1356 and 0.1444 and 0.1266
same,"Inhibition of cAMP production measured using a CAMYEL BRET biosensor, Net BRET",D2LR [3]; time 11.3833 mins,0.1394 and 0.145 and 0.1251
same,"Inhibition of cAMP production measured using a CAMYEL BRET biosensor, Net BRET",D2LR [3]; time 11.75 mins,0.1471 and 0.1529 and 0.1151
same,"Inhibition of cAMP production measured using a CAMYEL BRET biosensor, Net BRET",D2LR [3]; time 12.1167 mins,0.148 and 0.1471 and 0.1222
same,"Inhibition of cAMP production measured using a CAMYEL BRET biosensor, Net BRET",D2LR [3]; time 12.4833 mins,0.1456 and 0.1415 and 0.132
same,"Inhibition of cAMP production measured using a CAMYEL BRET biosensor, Net BRET",D2LR [3]; time 12.85 mins,0.1323 and 0.1432 and 0.12
same,"Inhibition of cAMP production measured using a CAMYEL BRET biosensor, Net BRET",D2LR [3]; time 13.2167 mins,0.14 and 0.1381 and 0.1276
same,"Inhibition of cAMP production measured using a CAMYEL BRET biosensor, Net BRET",D2LR [3]; time 13.5833 mins,0.1427 and 0.1424 and 0.1286
same,"Inhibition of cAMP production measured using a CAMYEL BRET biosensor, Net BRET",D2LR [3]; time 13.95 mins,0.1347 and 0.1377 and 0.1287
same,"Inhibition of cAMP production measured using a CAMYEL BRET biosensor, Net BRET",D2LR [3]; time 14.3167 mins,0.1428
same,koff,"D2LR [4]; Flp-In-CHO-D2LR membranes, 100 μM GppNHp, 37 °C",0.000167 s⁻¹
same,Kd,D2LR [4]; read-out: pKd (affinity determined from kinetic parameters) (converted),0.1 nM
same,EC50,D2LR [5]; 2 min,16.2 nM
same,Emax,D2LR [5]; 2 min,61 ± 4%
same,EC50,D2LR [5]; 5 min,3.47 nM
same,Emax,D2LR [5]; 5 min,67 ± 3%
same,Log(τ/KA) Cellular impedance,D2LR [5]; [7],8.30 ± 0.07
same,ΔLog(τ/KA) Cellular impedance,D2LR [5]; [8],-0.25 ± 0.08
same,EC50,D2LR [5]; 10 min,1.58 nM
same,Emax,D2LR [5]; 10 min,57 ± 2.5%
same,EC50,D2LR [5]; 15 min,0.912 nM
same,Emax,D2LR [5]; 15 min,58 ± 2.8%
same,EC50,D2LR [5]; 30 min,0.55 nM
same,Emax,D2LR [5]; 30 min,53 ± 3.1%
same,EC50,D2LR [5]; 45 min,0.339 nM
same,Emax,D2LR [5]; 45 min,51 ± 2.3%
same,EC50,D2LR [5]; 60 min,0.263 nM
same,Emax,D2LR [5]; 60 min,49%
same,EC50,D2LR [5]; 75 min,0.229 nM
same,Emax,D2LR [5]; 75 min,46%
same,EC50,D2LR [5]; 90 min,0.2 nM
same,Emax,D2LR [5]; 90 min,44%
same,Ki,D2LR [6],0.0437 nM
